Assays:
[1] = tested on: early phase of insulin secretion; details: dose-dependent; cited from earlier work
[2] = long-term usage, acromegaly or other disorders; cited from earlier work
[3] = Safety: blood pressure, glucose (FBG, CBG, HbA1c, IGT), TSH, free T4, lipids, adverse events, octreotide-LAR 24 weeks
Procedure: Inclusion criteria were ages 18-65 years and body mass index (BMI)≧35. The screening evaluation included a complete history and physical examination, and the following studies: Comprehensive Metabolic Panel (CMP), serum glucose 2 hours after an 75 gm oral glucose load, gallbladder ultrasound, and urine pregnancy test (if female). Exclusion criteria included gallstones, hypertension, diabetes mellitus (by ADA criteria), renal or liver disease, or use of chronic medications except for thyroid or estrogen supplementation. Subjects were evaluated every four weeks for 24 weeks. […]
Chemical Analyses: Serum glucose during OGTT was measured by the glucose oxidase method (Kadish, et al., “A new and rapid method for the determination of glucose by measurement of rate of oxygen consumption,” Clin Chem, 14:116-119 (1968), which is hereby incorporated by reference in its entirety). Serum immunoreactive insulin (μU/ml) and C-peptide (ng/ml) levels from each OGTT sample were measured by standard double-antibody radioimmunoassay (RIA) (Linco Research; St Louis, Mo.). Leptin was measured by double antibody RIA, and IGF-1 by competitive binding RIA (Endocrine Sciences; Calabasas Hills, Calif.). […]

[4] = target: somatostatin receptor-5 (SSTR5) (Homo sapiens, UniProt P35346); details: on the β-cell; cited from earlier work
[5] = children with obesity secondary to cranial insult and insulin hypersecretion; cited from earlier work
[6] = Fasting leptin and IGF-1 (RIA), octreotide-LAR 24 weeks; type: in vivo, human; details: Week 24-Week 0; High Responders (n = 8)

Chain of somatostatin receptor-5 (SSTR5) (P35346 whole entry, species assumed): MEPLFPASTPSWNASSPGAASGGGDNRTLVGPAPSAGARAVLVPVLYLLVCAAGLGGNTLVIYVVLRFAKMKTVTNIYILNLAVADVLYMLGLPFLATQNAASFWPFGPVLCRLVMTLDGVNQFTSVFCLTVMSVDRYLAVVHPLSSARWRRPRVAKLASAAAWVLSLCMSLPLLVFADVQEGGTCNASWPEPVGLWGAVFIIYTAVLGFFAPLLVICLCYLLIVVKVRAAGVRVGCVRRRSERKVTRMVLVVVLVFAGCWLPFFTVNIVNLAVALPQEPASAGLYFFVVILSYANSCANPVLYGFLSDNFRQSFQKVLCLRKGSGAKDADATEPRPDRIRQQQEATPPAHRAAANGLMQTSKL

Substance: D-phenylalanyl-L-cysteinyl-L-phenylalanyl-D-tryptophyl-L-lysyl-L-threonyl-N-[2-hydroxy-1(hydroxymethyl)propyl]-L-cysteinamide cyclic (2=>7)-disulfide [octreotide]
- Early phase of insulin secretion [1]: inhibit
- Weight and fat mass [2]: minimal positive effect
- HR subjects demonstrating IGT ([3]; at Week 0 and at Week 24): none
- Percent of subjects with IGT ([3]; end of the study (32% before treatment)): 73%
- Binding to somatostatin receptor-5 (SSTR5) [4]: binds
- Weight [5]: promotes weight loss
- Δ IGF-1 [6]: least suppression
